Consider 7 compounds from PubChem BioAssay (NCI).

Assay in all cases: NCI tumour cell line growth inhibition, 48 h
In assay [1] the test system is COLO 205 colon.
The test system of assay [2] is SF-268 CNS.
Assay [3] has as its system OVCAR-4 ovarian.
In assay [4] the test system is OVCAR-8 ovarian.
Assay [5] has as its system HOP-62 NSCLC.
The subject of assay [6] is CCRF-CEM leukemia.
Assay [7] deals with SR leukemia.
Assay [8] has as its system NCI-H460 lung.
For assay [9], the system named is SF-295 CNS.
In assay [10] the test system is HL-60(TB) leukemia.

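Cells were grown in 96-well plates and exposed to each compound for 48 hours at five concentrations; endpoints were interpolated linearly between bracketing concentrations, or set to the highest concentration if not reached. GI50 is the concentration that inhibits growth by half. The concentration for full growth arrest is given as TGI.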

With `C[C@H]1[C@@H](OCC(CO[C@H]2O[C@@H]3O[C@@]4(C)CC[C@H]5[C@H](C)CC[C@@H]([C@H]2C)[C@@]35OO4)=NOCC(=O)O)OC2O[C@@]3(C)CC[C@H]4[C@H](C)CC[C@@H]1[C@@]24OO3` (some centres undefined), the GI50 in assay [1] is less than 0.0195 µM; in assay [2], less than 0.0231 µM; in assay [3] it was 0.0565 µM; in [4], 0.0332 µM; in assay [5] it was 0.229 µM; in [6], less than 0.01 µM. The GI50 in assay [7] was less than 0.01 µM; in assay [8], 0.0537 µM; in assay [9], 0.1 µM; in assay [10], less than 0.01 µM. Further, the TGI in [1] was 0.422 µM; in assay [2], 0.889 µM; in [3], 18.2 µM; in assay [4], 16.4 µM; in assay [5] it was 21.7 µM; in [6], 12.5 µM. In addition, the TGI in assay [7] was 11.8 µM; in assay [8], 19.5 µM; in assay [9], 17.3 µM; in [10] it was 13.3 µM.

As for `CCOC(=O)C(C)(C)Oc1ccc2c(-c3ccc(Cl)cc3)cc(=O)oc2c1`, the TGI in assay [1], in assay [2], in assay [3], in assay [4], in assay [5] and in assay [6] was greater than 100 µM in each case. In addition, the TGI in assay [7], in assay [8], in assay [9] and in assay [10] was greater than 100 µM in each case.

For the compound `CCSC1=CC(=O)c2ccccc2C1=O`, the GI50 in assay [1] was 2.33 µM; in assay [2] it was 4.98 µM; in assay [3] it was 0.959 µM; in assay [4] it was 1.75 µM; in [5], 15.3 µM; in assay [6], 0.374 µM. The GI50 in [7] was 2.57 µM; in [8] it was 20.5 µM; in [9], 15.3 µM; in [10], 0.389 µM. In addition, the TGI in assay [1] amounted to 5.22 µM; in assay [2], 17.1 µM; in assay [3], 2.37 µM; in assay [4], 3.8 µM; in assay [5] it was 28.7 µM; in [7], 6.8 µM. In addition, the TGI in assay [8] was found to be 46.8 µM; in assay [9], 30.7 µM; in assay [10], 1.8 µM.

Consider `CC[C@@H]1OC2(C)CC(S(=O)(=O)c3ccccc3)CC1O2` (some centres undefined), for which the TGI in assay [1], in assay [2], in assay [3], in assay [4], in [5] and in [6] was greater than 100 µM throughout. The TGI in assay [7], in assay [8], in [9] and in [10] was greater than 100 µM in each case.

On to `CC/C=C\CCC/C=C1/C(=O)C=C[C@@H]1C/C=C\CCCC(=O)O`, for which the GI50 is 5.83 µM in [1]; 5.03 µM in assay [2]; 6.93 µM in [3]; 2.96 µM in assay [4]; 7.61 µM in assay [5]; 2.84 µM in assay [6]. In addition, the GI50 is 1.92 µM in assay [7], 4.49 µM in [8], 2.87 µM in assay [9] and 2.75 µM in assay [10]. Also, the TGI in assay [1] amounted to 18.4 µM; in assay [2], 22.1 µM; in assay [3], 22.1 µM; in [4], 9.87 µM; in assay [5] it was 22 µM; in [6], 16.2 µM. Also, the TGI in assay [7] was determined as 8.57 µM; in assay [8], 25.3 µM; in assay [9], 8.13 µM; in [10] it was 7.41 µM.

For `CC(=O)/C(C)=N/N/C(N)=N\S(=O)(=O)c1cc(C(=O)Nc2ccccc2)c(Cl)cc1SCc1ccccc1`, the GI50 in [1] is greater than 100 µM; in assay [2], 40.4 µM; in assay [3] it was 12.3 µM; in [4] it was 8.6 µM; in assay [5], 0.0554 µM; in assay [6], 98.5 µM. Moreover, the GI50 in assay [7] is 6.2 µM; in [8] it was 18 µM; in assay [9], 43.1 µM; in [10] it was 2.36 µM. Moreover, the TGI in [1] is greater than 100 µM; in assay [2], greater than 100 µM; in assay [3], greater than 100 µM; in assay [4] it was greater than 100 µM; in assay [5], 0.385 µM; in [6], greater than 100 µM. The TGI was greater than 100 µM in [7], 79.3 µM in assay [8], greater than 100 µM in assay [9] and 24.2 µM in [10].

`COc1ccc(/C=C2\COc3ccc(-c4ccccc4)cc3C2=O)cc1O`: the GI50 in assay [1] was 3.68 µM; in assay [2] it was 3.18 µM; in assay [3] it was 4.18 µM; in [4], 2.43 µM; in assay [5], 5.83 µM; in assay [6] it was 2.03 µM. Further, the GI50 in assay [7] was 2 µM; in assay [8] it was 2.07 µM; in [9], 4.4 µM; in assay [10] it was 2.29 µM. The TGI in [1] is 21.9 µM; in assay [2], 12.7 µM; in assay [3], 30.8 µM; in [4] it was 6.56 µM; in assay [5], 19.4 µM; in [6], greater than 100 µM. Also, the TGI in assay [7] was greater than 100 µM; in [8], 5.8 µM; in assay [9], 21.7 µM; in [10], greater than 100 µM.
